One series is described as follows: physchem. The settings on record: aqueous with cosolvent or surfactant or cyclodextrin, kinetic from dmso stock.
For the next series, the system named is EcK12. Put plainly: E. coli growth inhibition, wild-type strain K12. It counts as cell-based, Escherichia coli. The settings on record: Escherichia coli, 18 h, LB medium, read-out: EcK12 %inh. At 50 μM.
The nature of series [1]: solubility in M. tuberculosis 7H9 growth medium. It counts as physicochemical. The settings on record: Mtb 7H9 growth medium. The protocol:
Prior to biological evaluation of the tdDCC hits, we tested their solubility in a standard buffer as well as in M. tuberculosis 7H9 growth medium. […] Regrettably, with 3.3 μM the least soluble compound is E1, making our most amplified and promising compound unsuitable for biological evaluation. We assessed the solubility in Mtb growth medium given that it is a complex, nutrient-rich environment with a distinct solubility profile. However, the trend continued, only seven hits are soluble at 8 μM or above, the remaining five compounds, including E1, were not eligible for antitubercular activity testing (Table 1).
Determination of in vitro anti-tubercular activity and solubility in 7H9 medium Anti-tubercular tests were performed as previously described .1 In brief, 7H9 complete medium (BD Difco; Becton Dickinson, Maryland,USA) supplemented with 10% OADC (BD), 0.2% glycerol, and 0.05% Tween80 as previously described ,3 was used to culture Mycobacterium tuberculosis (Mtb) strain H37Rv (ATCC 25618) carrying a mCherry -expressing plasmid (pCherry10 ).4 Cultures were harvested at mid-log phase and frozen in aliquots at – 80 °C. Prior to testing aliquots were thawed followed by centrifugation and the pellet was resuspended in 7H9 medium with 10% OADC (without glycerol and Tween80). This was further thoroughly resuspended by passing it through a syringe with a 26 -gauge needle to avoid clumping of the bacteria. 2×10^5 CFU (colony forming units) were then cultured in a total volume of 100 μl culture medium (triplicates) to test the non-precipitating compounds for the anti-tubercular activity at the concentrations indicated. For these assays, 96-well flat clear bottom black polystyrene microplates (Corning® CellBIND®, Merck, New York, USA) wer e used. Each plate had Rifampicin (at 1 μg/ml and 0.1 μg/ml) (National Reference Center, Borstel) as a reference compound. Plates were sealed with an air -permeable membrane (Porvair Sciences, Wrexham, UK) in a 37 °C incubator with mild agitation (TiMix5, Edmund Bühler, Germany). The activity of compounds was determined after 7 days by measuring the bacterial growth as relative light units (RLU) from the fluorescence intensity obtained at an excitation wavelength of 575 nm and an emission wavelength of 635 n m in a microplate reader (Synergy 2, BioTek Instruments, Vermont, USA). Two independent experiments (each in triplicates) were performed, and all values were normalized to untreated control sample (100%) in each experiment.
To obtain information regarding the toxicity of our compounds, their impact on the viability of human cells was investigated. HepG2 cells (2x10^4 cells per well) were seeded in 96 -well, flat-bottomed culture plates in 100 µL culture medium (DMEM containing 10% fetal calve serum, 1% penicillin -streptomycin). Twenty-four hours after seeding the cells, medium was removed and replaced by medium containing test compounds in a final DMSO concentration of 1%. Compounds were tested in duplicates at a single concentration or, for CC50 determination, at 8 concentrations that were prepared via 2 -fold serial dilutions in 1% DMSO/medium. Epirubicin and doxorubicin were used as positive controls in serial dilutions starting from 10 µM, and rifampicin was used as a negative control (at 100 µM). The living cell mass was determined 48 h after treatment with compounds by adding 0.1 volumes of 3 -(4,5-dimethylthiazol-2-yl)-2,5-diphenyltetrazolium bromide (MTT) solution (5 mg/mL sterile PBS) (Sigma, St. Louis, MO) to the wells. After incubating the cells for 30 min at 37 °C (atmosphere containing 5% CO2), medium was removed and MTT crystals were dissolved in 75 µL of a solution containing 10% SDS and 0.5% acetic acid in DMSO. The optical density (OD) of the samples was determined photometrically at 570 nm in a PHERAstar Omega plate reader (BMG labtech, Ortenberg, Germany). To obtain percent viability for each sample, their ODs were related to those of DMSO controls. […]

The test system of another series is EcTolC. Nature of the series: microbe, parasite or virus in culture. The format is cell-based. As to conditions: Escherichia coli, 18 h, LB medium, read-out: EcTolC %inh. At 50 μM.
The target of series [2] is T1, MtbIspE (Mycobacterium tuberculosis, UniProt P9WKG7). Nature of the series: MtbIspE binding study via MicroScale Thermophoresis (MST). The settings on record: MST, 20 μM ligand, 200 nM MtbIspE, triplicate; qualitative. In general terms: Microscale thermophoresis detects binding through changes in fluorescence in a small temperature gradient.
T1 sequence (P9WKG7 whole entry): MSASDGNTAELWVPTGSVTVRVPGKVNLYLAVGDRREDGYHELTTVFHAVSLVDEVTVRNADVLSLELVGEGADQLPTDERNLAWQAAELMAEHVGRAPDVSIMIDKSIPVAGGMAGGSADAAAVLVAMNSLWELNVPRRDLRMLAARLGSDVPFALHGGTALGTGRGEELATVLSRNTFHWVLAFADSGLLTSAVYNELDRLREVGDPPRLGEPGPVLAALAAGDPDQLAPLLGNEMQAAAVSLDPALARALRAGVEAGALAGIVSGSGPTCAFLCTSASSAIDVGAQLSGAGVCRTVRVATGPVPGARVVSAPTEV
Series [3] has as its target T1, MtbIspE. Put plainly: MtbIspE binding study via thermal shift assay. As to conditions: read-out: MtbIspE ΔTm at 20 μM.
The test system of a further series is MtbH37Rv. The format is cell-based, Mycobacterium tuberculosis.
A further series can be described thus: in vitro. As to conditions: human, HepG2 CC50, HepG2, 48 h, MTT.
The subject of a further series is HepG2 cells. As to conditions: read-out: HepG2 CC50; HepG2, 48 h, MTT.
The target of series [4] is T1, MtbIspE. Put plainly: target-directed dynamic combinatorial chemistry (tdDCC), amplification of acylhydrazones in protein-templated vs blank DCL (HPLC-MS/MS, UV 310 nm). The format is binding. As to conditions: DCL-3, 24 h, 40 mol % MtbIspE; I1 and K1 integrated as one cluster. How it is done: In this study, we used MtbIspE as target protein and the reversible reaction of hydrazides and aldehydes to form dynamic combinatorial libraries (DCLs) of acylhydrazones. […] To accelerate the reaction at neutral pH, aniline was used as nucleophilic catalyst activating the aldehydes.[2],[4],[19] We analyzed the protein’s effect on the DCLs by comparing HPLC-MS/MS data of blank vs protein-templated (PT) experiments. The experiments spanned 3 days, with periodic sampling (every 2 h, followed by two samples per day after 8 h). The addition of NaOH to raise the pH and halt the reactions ensured the sample composition was preserved for analysis.[19] Templated experiments were conducted in duplicate, and the protein was denatured and removed prior to HPLC-MS/MS analysis.
The tdDCC hits and thus potential MtbIspE binders are amplified in the PT experiment compared to the blank experiment. The first step in the analysis of DCLs is the determination of the equilibrium since the amplification factors need to be calculated when the concentration of products is stable. To determine the evolution of the possible products, it is important to measure the characteristic UV absorbance of the acylhydrazones linker (310 nm) during the HPLC-MS/MS run. The resulting UV peaks are assigned to each product using the MS data (Figures S3–S6). The sum of all peak areas is normalized to 100% in order to obtain the respective relative peak area (RPA) for each product. The RPA values represent relative concentrations, determined at each time point of the blank experiment until the values stabilize. […] However, the rest of the compounds are out of range, making a visual inspection difficult. […] The other three libraries behaved in the same way, reaching equilibrium within 24 h and also maintained stable concentrations beyond (Figures S7–S9). To determine the tdDCC hits, we compared the RPAs of the PT experiments to the blanks at 24 h and set a threshold of at least 50% increase in compound formation. In total, 11 acylhydrazones passed our criteria, with amplification factors ranging from […] to 15.5, qualifying them for resynthesis and further evaluation (Figure 3). During the analysis of chromatograms, challenges arose concerning product identification. Some compound peaks were not neatly separated, forcing us to consider them in clusters, others presented two peaks, likely due to isomers, and were considered separately in our evaluation. Lastly, some compounds were detected by MS, but their respective UV signal interfered with the injection peak or was too low for integration (<1%), both in the blank and PT experiments. Consequently, we excluded these compounds from the analysis (Figure S3–S6).
To a well of a 24-well plate, containing Tris buffer (pH 7.0) were added hydrazides (300 μM each, in DMSO), aldehydes (100 μM each, in DMSO), aniline (20 mM, in DMSO), the protein MtbIspE (25 or 40 μM in Tris buffer at pH 7.0), and an additional amount of DMSO to reach a final concentration of 5% in the DCL with 0.5 mL of end-volume. The DCL was allowed to mix on a plate shaker at room temperature and was frequently monitored via LCMS-MS. For analysis, 30 μL of the corresponding library was mixed with 42 μL acetonitrile and 3 μL of NaOH (1 M), the mixture was centrifuged, and the supernatant was used for the analysis. PT experiments were run in duplicates and the protein was omitted for the blank experiments.
High-resolution mass (HRMS) of final products was determined by HPLC-MS/MS using a Thermo Scientific Q Exactive Focus Orbitrap LC -MS/MS system. All compounds were analyzed for purity by LCMS on Acquity UPLC-SQD system from Waters with a gradient elution of Water (Formic acid 0.1%)/Acetonitrile on an HSS - T3 column (2.1 x 50 mm, Waters), 1.8 µm, at 30°C, PDA detection between 240 -320 nm, and MS detection by simultaneous ES+/ES- ionization in a mass range of 150 -800. The flow is set to 0.9 ml/min, and the […]
gradient time is 1.5 min. […]

Values after ≈ are worked out from the molar mass of the structure shown. Some results are limits rather than exact numbers.

For orientation: solubility means the concentration that dissolves in the medium under given conditions. By ΔTm is commonly meant the change in melting temperature against a reference sample. In the case of `CN1CCN(CC(=O)N/N=C/c2cc(Cl)ccc2O)CC1` [C1, (E)-N′-(5-Chloro-2-hydroxybenzylidene)-2-(4-methylpiperazin-1-yl)acetohydrazide], the solubility at 5 min was over 800 µM in the series “physchem” (solubility 5% DMSO in PBS) and about 1000 µM (≈ 311 µg/mL) in “physchem” (solubility in PBS with 5% DMSO). Besides, the values for the inhibition at 50 µM in the series with EcK12 and with EcTolC were under 10% and 17.1 ± 0.1%, respectively. The solubility in [1] (M. tuberculosis 7H9 growth medium, plasma or biological fluid, kinetic from dmso stock) worked out at 16 µM. Besides, the “MtbIspE binding at 20 μM” value on MtbIspE [2] was “consistently demonstrated binding across all measurements and Yes”. For the same molecule, the ΔTm at 20 µM on MtbIspE [3] is under 0.3 °C. Besides, the “MtbH37Rv MIC90” value in the series with MtbH37Rv was “no inh. at max. sol”. The CC50 in “in vitro” is over 50 µM.
`CC(C)Cc1cc(C(=O)N/N=C/c2cc(Cl)ccc2O)[nH]n1` [D1, (E)-N′-(5-Chloro-2-hydroxybenzylidene)-3-isobutyl-1H-pyrazole-5-carbohydrazide]: the concentration in solution in the series “physchem” (solubility 5% DMSO in PBS) (solubility at 5 min) was 22 ± 9 µM (≈ 7.06 µg/mL). The CC50 in the series with HepG2 cells is 7.9 ± 0.8 µM; in the series “in vitro”, under 10 µM. Also, the inhibition at 50 µM is 11 ± 4% in the series with EcK12 and 28 ± 11% in the series on EcTolC. For the same molecule, in [1], the “solubility in 7H9” value is reported as “insoluble”. At MtbIspE [2], the “MtbIspE binding at 20 μM” value is “No”. For the same molecule, the ΔTm at 20 µM at MtbIspE [3] was under 0.3 °C.
The molecule `O=C(N/N=C/c1cc(Cl)ccc1O)c1cccc(Cl)c1` [K1, (E)-3-Chloro-N′-(5-chloro-2-hydroxybenzylidene)benzohydrazide] registered a solubility at 5 min in the series “physchem” (solubility 5% DMSO in PBS) of 25 ± 4 µM (≈ 7.73 µg/mL). Further, the results for the CC50 with HepG2 cells and in the series “in vitro” were 7 ± 3 µM and under 10 µM, respectively. Also, in the series with EcK12, the inhibition at 50 µM was under 10%. For the same molecule, the “solubility in 7H9” value in series [1] is on record as “insoluble”. The “MtbIspE binding at 20 μM” value at MtbIspE [2] is “consistently demonstrated binding across all measurements and Yes”. Further, on MtbIspE [4], the “Amplification factors (DCL-3)” value was found to be 2.0. Further, the ΔTm at 20 µM on MtbIspE [3] was 0.7 °C.

Values taken from PMC11391541, “Target-Directed Dynamic Combinatorial Chemistry Affords Binders of Mycobacterium tuberculosis IspE” (ACS Omega, 2024).
